Literature values, collected in EP0305400B1, “A COMPOSITION HAVING REDUCED NEPHROTOXICITY COMPRISING A FATTY ACID CONTAINING COMPONENT AND CYCLOSPORINE” (BRIGHAM AND WOMEN'S HOSPITAL, priority 1986, dated 1987).

System: Tx synthetase
Details: rats treated with CSA

For `Cc1c(Cn2ccnc2)c2ccccc2n1CCC(=O)O` [UK-38,485], the “glomerular filtration rate (GFR)” value is given as “improved” and the “urinary TxB2 levels” value is given as “comparable to control levels”.
